The numbers were not newly measured in patent publication US7825135B2, “Heteroaryl piperidine glycine transporter inhibitors” (Merck Sharp & Dohme Limited, priority 2004, dated 2010), which cites them from elsewhere.

For series [1] the following is noted: mice.
A further series deals with NMDA receptor. The settings on record: rat; blockade of GlyT1.
The conditions of series [2]: high doses, oral, add-on to standard neuroleptic therapy.
The conditions of series [3]: schizophrenia patients poorly responsive to antipsychotic drugs.

As to `CN(CCC(Oc1ccc(-c2ccccc2)cc1)c1ccc(F)cc1)CC(=O)O` (stereo not shown) [NFPS], the “effect on pre-pulse inhibition (sensory gating)” value in series [1] is recorded as “enhance pre-pulse inhibition”. Moreover, the “effect on NMDA receptor activity and NMDA receptor-dependent long-term potentiation” value with NMDA receptor was “potentiates NMDA receptor activity and NMDA receptor-dependent long-term potentiation”. In the case of `NCC(=O)O` [glycine], the “effect on symptoms of schizophrenia patients” value in series [2] is listed as “improvement of the symptoms”. For `CNCC(=O)O` [sarcosine], the “effect on positive, negative and cognitive symptoms” value in series [3] is listed as “beneficial effect”.
